Test results taken from patent US10722484B2, “Methods of cancer treatment” (K-Gen, Inc., priority 2016, dated 2020).
Read-outs that look alike come from different tables or passages of the source.

What was measured:
LS180 = test: Proliferation assay (CellTiter Glo); type: cell-based; details: 96 hours
Protocol: (§1) The dose range for most compounds was 4.6 nM-30 μM. The dose ranges for some compounds were adjusted downward to 0.46 nM-3 μM or 0.08 nM-0.5 μM or 0.03 nM-0.2 μM. […] The results are shown in Tables 3-6 for pancreatic cancer, lung cancer, colon/gastric cancer, and leukemia.

CCRF-CEM = test: Proliferation assay (CellTiter Glo); type: cell-based; details: 96 hours
Protocol: as §1

H441 = test: Proliferation assay (CellTiter Glo); type: cell-based; details: 96 hours
Protocol: as §1

A549 = test: Proliferation assay (CellTiter Glo); type: cell-based; details: 96 hours
Protocol: as §1

Capan-1 = test: Proliferation assay (CellTiter Glo); type: cell-based; details: 96 hours
Protocol: as §1

H358 = test: Proliferation assay (CellTiter Glo); type: cell-based; details: HE58, 96 hours
Protocol: as §1

H727 = test: Proliferation assay (CellTiter Glo); type: cell-based; details: 96 hours
Protocol: as §1

HCT116 = test: Proliferation assay (CellTiter Glo); type: cell-based; details: 96 hours
Protocol: as §1

KP-4 = test: Proliferation assay (CellTiter Glo); type: cell-based; details: 96 hours
Protocol: as §1

AsPC-1 = test: Proliferation assay (CellTiter Glo); type: cell-based; details: 96 hours
Protocol: as §1

AGS = test: Proliferation assay (CellTiter Glo); type: cell-based; details: 96 hours
Protocol: as §1

SW620 = test: Proliferation assay (CellTiter Glo); type: cell-based; details: 96 hours
Protocol: as §1

Pan2.03 = test: Proliferation assay (CellTiter Glo); type: cell-based; details: 96 hours
Protocol: as §1

Pan2.13 = test: Proliferation assay (CellTiter Glo); type: cell-based; details: 96 hours
Protocol: as §1

THP1 = test: Proliferation assay (CellTiter Glo); type: cell-based, human; details: 96 hours
Protocol: as §1

HL60 = test: Proliferation assay (CellTiter Glo); type: cell-based, human; details: 96 hours
Protocol: as §1

[1] = system: leukemia inhibitory factor (LIF); test: Western blot analysis of PKC signaling pathway elements in A549 cells; type: cell-based; details: Western blot, concentrations of Table 8 (K101A 0.1, 0.5, […]; K101E […]; K102 0.1, 0.5 μM; K103 0.01 μM; Ref1 1 μM; Ref2 0.01 μM)
Protocol: Cancer cells (2-8 million cells) were seeded in 10 cm dishes and grown overnight. For A549 lung cancer cell line, about 3 million cells were seeded. Cells were then treated with different drugs at concentrations described in Table 8 for a period of time up to 48 hours. Cells were lysed in 0.3-0.5 mL of RIPA buffer (Sigma) supplemented with protease inhibitors (Roche) and phosphatase inhibitors (Sigma). Lysates were assayed for protein concentration using BCA kit (Pierce). Normalized amount of lysates (20-30 μg protein/lane) were run on 4-12% NuPage gel (Life Technologies) and the proteins were transferred to the PVDF or nitrocellulose membrane using iBlot® Transfer Stack (Life Technologies). The membranes were probed with primary antibodies shown in Table 9 at 4° C. overnight after blocking with 1×TBST containing 5% non-fat milk. Antibodies from other vendors could also be used in Western blot analysis. After washing 5 times with 1×TBS containing 0.1% Tween20, the membranes were probed with 2nd antibodies Anti-mouse IgG Dylight 800 conjugate or Anti-rabbit IgG DyLight 680 conjugate (1:10000; Cell signaling or similar IR 2nd antibodies from different vendors) at room temperature for one hour. After washing 5 times, the membranes were scanned using Odyssey® Imaging System (Licor Biosciences).

MiaPaCa-2 = test: Proliferation assay (CellTiter Glo); type: cell-based; details: 96 hours

In the case of CC(=O)OCC1=CC2C3C(C)(C)C3(OC(C)=O)CC(C)C2(O)C2C=C(C)C(=O)C2(O)C1 (centres unmarked) [Compound K101E], the EC50 (LS180; LS180 (K-RAS: G12D), absolute EC50, read-out: Ab EC50) is reported as greater than 30000 nM, the “Top Inhibition %” value (LS180; LS180, % of top inhibition) is reported as 1.3% and the EC50 (CCRF-CEM; CCRF-CEM (K-RAS: G12D), absolute EC50, read-out: Ab EC50) is reported as greater than 30000 nM. For the same compound, the “Top Inhibition %” value (CCRF-CEM; CCRF-CEM, % of top inhibition) was 34.3%, the EC50 (CCRF-CEM; CCRF-CEM, relative EC50, read-out: Re EC50) was 270 nM and the EC50 (H441; H441 (K-RAS: G12V), absolute EC50, read-out: Ab EC50) was greater than 30000 nM. The “Top Inhibition %” value (H441; H441, % of top inhibition) was 49.1%, the EC50 (H441; H441, relative EC50, read-out: Re EC50) was 2610 nM and the EC50 (A549; A549 (K-RAS: G12S), absolute EC50, read-out: Ab EC50) was 2640 nM. The “Top Inhibition %” value (A549; A549, % of top inhibition) was 78.7%, the EC50 (A549; A549, relative EC50, read-out: Re EC50) was 1560 nM and the EC50 (Capan-1; Capan-1 (K-RAS: G12V), absolute EC50, read-out: Ab EC50) was greater than 30000 nM. For the same compound, the “Top Inhibition %” value (Capan-1; Capan-1, % of top inhibition) was 44.6%, the EC50 (Capan-1; Capan-1, relative EC50, read-out: Re EC50) was 830 nM and the “Top Inhibition %” value (H358; % of top inhibition) was 47.9%. The EC50 (H358; absolute EC50, read-out: Ab EC50) was greater than 30000 nM, the EC50 (H358; relative EC50, read-out: Re EC50) was 1250 nM and the EC50 (H727; H727 (K-RAS: G12V), absolute EC50, read-out: Ab EC50) was greater than 30000 nM. For the same compound, the “Top Inhibition %” value (H727; H727, % of top inhibition) was 49.1%, the EC50 (H727; H727, relative EC50, read-out: Re EC50) was 620 nM and the EC50 (HCT116; HCT116 (K-RAS: G13D), absolute EC50, read-out: Ab EC50) was greater than 30000 nM. For the same compound, the “Top Inhibition %” value (HCT116; HCT116, % of top inhibition) was 27.4%, the EC50 (HCT116; HCT116, relative EC50, read-out: Re EC50) was 6640 nM and the EC50 (KP-4; KP-4 (K-RAS: G12C), absolute EC50, read-out: Ab EC50) was 1280 nM. The “Top Inhibition %” value (KP-4; KP-4, % of top inhibition) was 69.1%, the EC50 (KP-4; KP-4, relative EC50, read-out: Re EC50) was 680 nM and the EC50 (AsPC-1; AsPC-1 (K-RAS: G12D), absolute EC50, read-out: Ab EC50) was greater than 30000 nM. For the same compound, the “Top Inhibition %” value (AsPC-1; AsPC-1, % of top inhibition) was 35.2%, the EC50 (AsPC-1; AsPC-1, relative EC50, read-out: Re EC50) was 2780 nM and the EC50 (AGS; AGS (gastric, K-RAS: G12D), absolute EC50, read-out: Ab EC50) was greater than 30000 nM. For the same compound, the “Top Inhibition %” value (AGS; AGS, % of top inhibition) was 25.9%, the EC50 (AGS; AGS, relative EC50, read-out: Re EC50) was 4380 nM and the EC50 (SW620; SW620 (K-RAS: G12V), absolute EC50, read-out: Ab EC50) was greater than 30000 nM. For the same compound, the “Top Inhibition %” value (SW620; SW620, % of top inhibition) was 0.0%, the EC50 (Pan2.03; Pan2.03 (K-RAS: G12D), absolute EC50, read-out: Ab EC50) was greater than 30000 nM and the “Top Inhibition %” value (Pan2.03; Pan2.03, % of top inhibition) was 36.5%. For the same compound, the EC50 (Pan2.03; Pan2.03, relative EC50, read-out: Re EC50) was 1920 nM, the EC50 (Pan2.13; Pan2.13 (K-RAS: Q61H), absolute EC50, read-out: Ab EC50) was greater than 200 nM and the “Top Inhibition %” value (Pan2.13; Pan2.13, % of top inhibition) was 49.8%. The EC50 (Pan2.13; Pan2.13, relative EC50, read-out: Re EC50) was 44 nM, the EC50 (THP1; THP1 (N-RAS: G12D), absolute EC50, read-out: Ab EC50) was 3600 nM and the “Top Inhibition %” value (THP1; THP1, % of top inhibition) was 51.6%. The EC50 (THP1; THP1, relative EC50, read-out: Re EC50) was 1020 nM, the EC50 (HL60; HL60 (N-RAS: Q61L), absolute EC50, read-out: Ab EC50) was 3050 nM and the “Top Inhibition %” value (HL60; HL60, % of top inhibition) was 63.4%. The EC50 (HL60; HL60, relative EC50, read-out: Re EC50) was 1920 nM, the “protein levels of the leukemia inhibitory factor (LIF)” value [1] was “did not affect” and the EC50 (MiaPaCa-2; MiaPaCa-2 (K-RAS: G12C), absolute EC50, read-out: Ab EC50) was 1880 nM. For the same compound, the “Top Inhibition %” value (MiaPaCa-2; MiaPaCa-2, % of top inhibition) was 61.4% and the EC50 (MiaPaCa-2; MiaPaCa-2, relative EC50, read-out: Re EC50) was 860 nM.
